Reference: article PMC5619818, “Exploring Lactobacillus reuteri DSM20016 as a biocatalyst for transformation of longer chain 1,2-diols: Limits with microcompartment” (PLoS ONE, 2017)

Tests used:
[1] = target: T1, PduQ (1,3-propanediol oxidoreductase) (Limosilactobacillus reuteri, UniProt A5VM99); experiment: NADH oxidation at […] nm; type: biochemical; details: NADH 0.2 mM, 50 mM potassium phosphate pH 7.0; aldehyde reduction
T1 construct: gene Lreu_1734
T1 sequence (A5VM99 1-373): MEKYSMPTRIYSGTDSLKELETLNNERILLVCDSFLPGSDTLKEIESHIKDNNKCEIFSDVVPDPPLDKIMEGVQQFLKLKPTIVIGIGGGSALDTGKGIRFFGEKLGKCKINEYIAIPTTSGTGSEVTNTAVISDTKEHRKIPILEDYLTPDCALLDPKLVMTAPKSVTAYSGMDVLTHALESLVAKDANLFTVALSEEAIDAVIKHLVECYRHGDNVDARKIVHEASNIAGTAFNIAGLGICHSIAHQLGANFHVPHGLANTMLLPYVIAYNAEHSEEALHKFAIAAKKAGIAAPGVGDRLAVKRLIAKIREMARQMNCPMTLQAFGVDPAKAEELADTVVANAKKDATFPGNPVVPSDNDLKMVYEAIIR

[2] = target: T2, PduP (coenzyme-A acylating propionaldehyde dehydrogenase) (Limosilactobacillus reuteri, UniProt A5VMA0); experiment: NADH formation at […] nm; type: biochemical; details: NAD+ 5 mM, HS-CoA 0.43 mM, 50 mM potassium phosphate pH 7.0, 1 mM DTT, 30 °C
T2 construct: gene Lreu_1735

purified protein = substrate: O=CCCO; experiment: purified protein; type: biochemical, Limosilactobacillus reuteri

`CCCCCCCCCC=O` [Decylaldehyde] was tested, and the Km [1] was “Hexanaldehyde (C6)< Octanaldehyde (C8)< Decylaldehyde (C10)” and the Km [2] was “Hexanaldehyde (C6)< Octanaldehyde (C8)< Decylaldehyde (C10)”.

In the case of `CCCCCCCC=O` [Octanaldehyde], the Km [1] is reported as “Pentanaldehyde (C5)< Hexanaldehyde (C6)< Octanaldehyde (C8)” and the Km [2] is reported as “Pentanaldehyde (C5)< Hexanaldehyde (C6)< Octanaldehyde (C8)”.

B1: PduP (coenzyme-A acylating propionaldehyde dehydrogenase) (Limosilactobacillus reuteri subsp. reuteri) (protein)
chain: MQINDIESAVRKILAEELDNASSSSANVAATTDNGHRGIFTNVNDAIAAAKAAQEIYRDKPIAVRQQVIDAIKEGFRPYIEKMAKDIKEETGMGTVEAKIAKLNNALYNTPGPEILEPVVENGDGGMVMYERLPYGVIGAVGPSTNPSETVIANAIMMLAGGNTLYFGAHPGAKNVTRWTIEKMNDFIADATGLHNLVVSIETPTIESVQQMMKHPDIAMLAVTGGPAVVHQAMTSGKKAVGAGPGNPPAMVDATADIDLAAHNIITSASFDNDILCTAEKEVVAESSIKDELIRKMQDEGAFVVNREQADKLADMCIQENGAPDRKFVGKDATYILDQANIPYTGHPVEIICELPKEHPLVMTEMLMPILPVVSCPTFDDVLKTAVEVEKGNHHTATIHSNNLKHINNAAHRMQCSIFVVNGPSYVGTGVADNGAHSGASALTIATPTGEGTCTARTFTRRVRLNSPQGFSVRNWY
In the case of B1, the Km (purified protein; NAD+ 5 mM, HS-CoA 0.43 mM, 50 mM potassium phosphate pH 7.0, 1 mM DTT, 30 °C) is reported as 10.1 mM.

B2: PduQ (1,3-propanediol oxidoreductase) (Limosilactobacillus reuteri subsp. reuteri) (protein)
chain: MEKYSMPTRIYSGTDSLKELETLNNERILLVCDSFLPGSDTLKEIESHIKDNNKCEIFSDVVPDPPLDKIMEGVQQFLKLKPTIVIGIGGGSALDTGKGIRFFGEKLGKCKINEYIAIPTTSGTGSEVTNTAVISDTKEHRKIPILEDYLTPDCALLDPKLVMTAPKSVTAYSGMDVLTHALESLVAKDANLFTVALSEEAIDAVIKHLVECYRHGDNVDARKIVHEASNIAGTAFNIAGLGICHSIAHQLGANFHVPHGLANTMLLPYVIAYNAEHSEEALHKFAIAAKKAGIAAPGVGDRLAVKRLIAKIREMARQMNCPMTLQAFGVDPAKAEELADTVVANAKKDATFPGNPVVPSDNDLKMVYEAIIR
B2 showed a Km (purified protein; NADH 0.2 mM, 50 mM potassium phosphate pH 7.0, aldehyde reduction) of 28.7 mM.
